The source of these data is patent US12157740B2, “Triazolopyridines and triazolopyrimidines that lower stress-induced p-tau” (NantNeuro, LLC, priority 2015, dated 2024).

Data set [1] can be described thus: in vivo pharmacokinetics, plasma and brain levels. As to conditions: for brain levels after subcutaneous injection: peak for J14 and J19; for time of peak levels after SQ injection: plasma and brain (J19: brain); for levels after oral delivery compared with injection: J32: plasma and brain. Further details: species or system mouse.
Data set [2] has as its system tau and phospho-tau in SHSY-5Y cells. Description: CRF-induced tau, p-tau and sAPPα changes in SHSY-5Y cells. The class given is cell-based. The note with it: for p-tau/tau ratio: FIG. 32C.
In the next data set the test system is mice. Description: J14 daily SQ injection for 12 days in mice. The class given is in vivo, mouse. As for the experimental part: (§1) Animal experiments were performed using J20 mice. The J20 mouse is a model of for Alzheimer's disease. This model overexpresses human APP with two mutations linked to familial Alzheimer's disease (the APP KM670/671NL (Swedish) and 5APP V717F (Indiana) mutations).
FIGS. 31A-31F depict total sAPPα, Aβ1-40, and Aβ1-42, and tau, p-tau, and p-tau/tau ratio, respectively, after daily SQ injection at 10 mkd does for 12 days.

In data set [3] the test system is tau and p-tau in SH-Sy5Y cells. Description: screens for tau and p-tau levels in SH-Sy5Y cells (no CRF stated). Type of data set: cell-based. As to conditions: for tau and/or p-tau lowering effect compared with J03: SH-Sy5Y screens (J04: p-tau only, FIG. 19; J17: FIGS. 21A-B; J14: FIG. 28A). As for the experimental part:
As described below, in vitro studies were performed using SHSY-5Y cells. These cells are a useful neurological model that differentiate into cells with morphological and biochemical characteristics of mature neurons including mature isoforms of tau. […]

A further data set concerns J20 mice. The experiment in a line: J17 pilot study in J20 mice (oral, 28 days). The class given is in vivo, mouse. As for the experimental part: as §1
In a J17 pilot study (#1 pilot study) male and female J20 mice were housed singly and treated with J17 at 10 rnkd by oral delivery for 28 days.

Another data set deals with tau and p-tau. The experiment in a line: effect of J03 and J19 on tau and p-tau (FIG. 39E-39F, system not given). An excerpt:
JI9 decreased tau and both J03 and JI9 decreased p-tau (FIG. 39E). Therefore, while the p-tau/tau ratio looks unchanged for J19 FIG. 39F. This is due to the tau decrease and not due to a lack of effect.

The mark [4] stands for this setting: CRF-1 at 0 nM, 50 nM and 100 nM, FIGS. 29B-29C.
The mark [5] stands for this setting: CRF-1 at 100 nM for 3 days, compound at 20 nM, FIG. 29A.
Setting [6] is: compared to a control J03, FIGS. 33A-33B.
Setting [7] is: primary screen in SH-Sy5Y cells, FIG. 19.
[8] abbreviates: 10 mg/kg intraperitoneal, FIG. 33D.

For `CCC(COC)n1nnc2c(N(C)c3c(C)cc(C)cc3C)nc(C)nc21` (centres unmarked) [J14], in data set [1] (10 mg/kg SQ), the “brain/plasma ratio after SQ injection” value was determined as 0.6, the “brain levels after subcutaneous injection” value is reported as 485 ng/g and the “time of peak levels after SQ injection” value is 2 h. Besides, the “plasma level at peak after subcutaneous injection” value in data set [1] (10 mg/kg SQ, FIG. 30A) is 798 ng/mL. For the same compound, in data set [1] (10 mg/kg oral, FIG. 30B), the “time of peak brain levels after oral feeding” value was 2 h. The “brain levels after oral delivery” value in data set [1] (10 mg/kg oral, peak for J14) is listed as 13.3 ng/g. For the same compound, in data set [1] (oral feeding at 10 mg/kg), the “brain:plasma ratio after oral delivery” value amounted to 1.33. In data set [2] (setting [4]), the p-tau entry is given as “decreasing”; the “p-tau and tau decrease compared with J03” value was “more than J03”; the tau result is listed as “decreasing”. Further, in data set [2] (setting [5]), the p-tau result was “decreased” and the total tau entry was “decreased”. For the same compound, the tau protein entry in the data set on mice (B254 mice (Swedish, Indiana and D664A APP mutations), trend for both vehicle and J14 treated, FIGS. 31D-31F) is recorded as “trend for lower levels”. Moreover, the Aβ1-40 entry with mice (daily SQ injection 10 mkd for 12 days, FIG. 31B) is recorded as “trend toward decrease”. Moreover, the Aβ1-42 result with mice (daily SQ injection 10 mkd for 12 days, FIG. 31C) is given as “trend toward decrease”. In the data set on mice (daily SQ injection 10 mkd for 12 days, compared to vehicle treated mice, FIG. 31A), the sAPPα entry is on record as “decrease”. For the same compound, in data set [3], the “tau and/or p-tau lowering effect compared with J03” value is given as “more than J03”. Further, in data set [3] (screen of FIG. 28A), the p-tau entry is reported as “decreased” and the total tau entry is recorded as “decreased”. In data set [3] (screen of FIG. 28B), the p-tau result is listed as “neither J14 nor J03 decreased” and the total tau result is given as “neither J14 nor J03 decreased”.

As for `CCC(COC)Nc1nc(C)nc2c1nnn2-c1ccc(OC)cc1C` (centres unmarked) [J17], in data set [1] (10 mg/kg SQ, FIG. 23A), the “plasma levels after subcutaneous injection” value is on record as roughly 4000 ng/m. Moreover, the “brain levels after subcutaneous injection” value in data set [1] (10 mg/kg SQ) is roughly 400 ng/g. For the same compound, the “plasma levels relative to brain levels after oral delivery” value in data set [1] (10 mg/kg oral, FIG. 23B) is listed as roughly 10 fold. Further, in data set [1] (10 mg/kg oral, peak for J14), the “brain levels after oral delivery” value was roughly 50 ng/g. In data set [2] (FIG. 21D), the “tau after exposure to CRF” value is given as “decreased”. Besides, the “p-tau after exposure to CRF” value in data set [2] (FIG. 21E) is “decreased”. The “p-tau with increasing concentrations of CRF” value in data set [2] (seen at all concentrations of CRF tested, excluding 0, FIG. 22C) is “decrease”. In data set [2] (seen without CRF and at 50 nM, not at other concentrations, FIG. 22A), the “sAPPα with increasing concentrations of CRF” value is “decrease”. Also, the “tau with increasing concentrations of CRF” value in data set [2] (seen without CRF and at 50 and 100 nM, FIG. 22B) is listed as “decrease”. In data set [2] (versus control, FIG. 21C), the “sAPPα after exposure to CRF” value is “the same for control as for J17”. In addition, in data set [3] (SH-Sy5Y cells, FIG. 21A), the tau entry is “significantly lower”. Further, the p-tau result is reported as “significantly lower” in data set [3] (SH-Sy5Y cells, FIG. 21B) and “slightly lower” in the data set with J20 mice (male mice, FIG. 27B). For the same compound, in data set [3], the “tau and/or p-tau lowering effect compared with J03” value is “greater”. Besides, the Aβ1-40/Aβ1-42 ratio entry in the data set on J20 mice (FIG. 26C) is listed as “no significant difference”. For the same compound, the Aβ1-42 entry in the data set with J20 mice (data from all mice, FIG. 26A) is “no significant differences”; in the data set on J20 mice (male mice, low outlier from one sibling pair eliminated, FIG. 26B), “significant reduction”. Also, the activity result in the data set on J20 mice (male and female J20 mice housed singly, oral 28 days, not significant, FIG. 24A) is “lowered”. Further, the p-tau/tau ratio result in the data set on J20 mice (male mice, FIG. 27C) is given as “lower still”. Besides, in the data set with J20 mice (males, FIG. 27A), the Tau result was “increased”. In addition, the sAPPβ entry in the data set on J20 mice (oral 28 days, FIG. 25B) was “decrease”. Moreover, the “novel object preference, overall” value in the data set on J20 mice (oral 28 days, all mice, FIG. 24B) was “increase with J17 was significant”. Moreover, the sAPPα entry in the data set on J20 mice (oral 28 days, both genders, FIG. 25A) is listed as “increase with J03 but not J17”. Besides, in the data set on J20 mice (oral 28 days, males, FIG. 25C), the “ratio sAPPα/sAPPβ” value is given as “greater”.

Regarding `CCC(COC)n1nnc2c(N(C)c3ccc(OC)cc3C)nc(C)nc21` (centres unmarked) [J30], the total tau levels result in data set [3] (setting [6]) was “lowered”.

Turning to `CCC(COC)n1nnc2c(Nc3ccc(OC)cc3C)nc(C)nc21` (centres unmarked) [J04], in data set [1] (SQ injection, FIG. 20A), the “clearance after injection compared with oral delivery” value was “slower”. In addition, in data set [1] (dose not given, FIG. 20A), the “brain levels after SQ injection” value is recorded as roughly 55 ng/g and the “brain levels after oral delivery” value is on record as roughly 55 ng/g. Moreover, the “tau and/or p-tau lowering effect compared with J03” value in data set [3] is given as “same level as J03”. Besides, in data set [3] (setting [7]), the p-tau entry is recorded as “did lower” and the tau entry is “did not lower”.

In the case of `CCC(COC)N(C)c1nc(C)nc2c1nnn2-c1c(C)cc(C)cc1C` (centres unmarked) [J32], in data set [1] (10 mg/kg SQ), the “brain/plasma ratio after SQ injection” value amounted to 0.75 and the “time of peak levels after SQ injection” value came to 1 h. In data set [1] (setting [8]), the “clearance from brain after IP injection” value was “cleared out slowly over 8 hours” and the “time of peak brain levels after IP injection” value was 2 h. Also, the “levels after oral delivery compared with injection” value in data set [1] (10 mg/kg oral) is listed as “much lower”. Besides, the p-tau/tau ratio entry in data set [3] (1p M of J32 in SH-SY5Y cells, compared to J03 and a control, FIG. 33C) is “significant decrease”. In data set [3] (setting [6]), the p-tau/tau ratio entry is on record as “significantly lowered”.

Take `CCC(COC)Nc1nc(C)nc2c1nnn2-c1ccc(Cl)cc1C` (centres unmarked) [J19, 3-(4-Chloro-2-methylphenyl)-N-(1-methoxybutan-2-yl)-5-methyl-3H-[1,2,3]triazolo[4,5-d]pyrimidin-7-amine]: the “brain levels after subcutaneous injection” value in data set [1] (10 mg/kg SQ) was roughly 190 ng/g. In data set [1] (10 mg/kg SQ), the “time of peak levels after SQ injection” value is 4 h. The “levels after oral delivery compared with injection” value in data set [1] (10 mg/kg oral) is “much lower”. Besides, in data set [1] (10 mkd SQ, FIG. 32G), the “persistence of brain levels after SQ injection” value is reported as “relatively high until 8 hours”. Further, the p-tau/tau ratio entry in data set [2] (at 50 and 100 nM CRF) is on record as “highly significantly decreased”; in data set [2] (in the absence of CRF), “decreased”; in the data set with tau and p-tau (FIG. 39F as printed, due to the tau decrease) it was “unchanged”. For the same compound, the tau entry in data set [2] (in the absence of CRF and in the presence of 100 nM CRF, FIG. 32A) is recorded as “trend to decrease”; with tau and p-tau (FIG. 39E), “decreased”. Further, the p-tau entry in data set [2] (in the presence and absence of CRF, FIG. 32B) was “significantly reduced”; in the data set with tau and p-tau (FIG. 39E), “decreased”. In addition, in data set [2] (with and without CRF, FIG. 32D), the sAPPα entry was “trend for sAPPα to be higher”.
